Measured values taken from US10350176B2 (priority 2013, dated 2019).
Where two headings read alike, the source gives them in different places.

Legend:
[1] = system: MRC5 (fetal lung fibroblasts); conditions: DPI 9.8 nM-1.25 μM; 48 hours incubation
Experimental: (§1) Human cells CCD 841 (intestinal epithelial cells) and MRC5 (fetal lung fibroblasts) in appropriate growth media were dispensed into black 384-well plates (Corning, cat. No. 3571) at a density of 15,000 cells/25 μl/well using a Multidrop Combi (Thermo Scientific). After 48 hours incubation at 37° C. and 5% CO2, cell viability was determined using a commercial assay CellTiter Blue Cell Viability Assay (Promega, cat. No. G8082). […] Fluorescence intensity was measured by the detector (reader) EnVision (Perkin Elmer), and measured data were analysed using the software Prism5 (GraphPad Software, Inc.).

[2] = system: Leishmania major in amastigote form; assay: Cytotoxic effect on intracellular amastigotes in macrophages (flow cytometry, cell smears); format: cell-based; conditions: concentration at which number of infected macrophages decreased by 50%; 48 hours co-incubation
Experimental: Macrophage precursors were isolated from bone marrow and incubated for 7 days at 37° C. and 5% CO2 in DMEM supplemented with supernatant of L929 cells (20 percent by volume) containing M-CSF. After differentiation the macrophages were infected with E-GFP-L. major in stationary phase of growth at a ratio of 1:10. Then the macrophages were incubated in DMEM supplemented with the supernatant of L929 cells (20% volume) containing M-CSF at 37° C. and 5% CO2. After 24 hours, the medium containing the extracellular parasites was discarded and the plates were washed 3 times with HBSS medium (Hanks' Balanced Salt Solution, Sigma, St. Louis, Mo., cat. No. H9269). […]
The samples were analyzed on a FACSCalibur flow cytometer (Becton, Dickinson and Company, Franklin Lakes, N.J.) using CellQuest Pro software (Becton, Dickinson and Company, Franklin Lakes, N.J.). […] The results were measured for 10,000 macrophages in the first experiment and for 20,000 macrophages in the second experiment. […]
Smears were stained with Giemsa (Sigma, St. Louis, Mo., cat. No. 11700) and analysed by fluorescence microscopy Leica6000DM (Leica Microsystems GmbH, Wetzlar, Germany) at a magnification 400×. The total number of parasites in 500 macrophages was determined. […]

[3] = system: Leishmania major in promastigote form; assay: Promastigote growth inhibition assay (CellTiter-Blue); format: cell-based; conditions: 48 hours incubation; number of viable promastigotes reduced by 50%; read-out: L. major, in promastigote form (IC50)
Experimental: Antiparasitic activity in culture of promastigotes (insect form) was measured using a standard microdiluting method, determining the minimum inhibitory concentration (MIC) of the test sample, which leads to inhibition of parasite growth.
For promastigote growth inhibition assays the subculture 2 of L. major was cultured in Schneider's insect medium (Sigma, St. Louis, Mo., cat. No. S0146) supplemented with 50 μm/ml gentamicin (Sigma, St. Louis, Mo., cat. No. G1272), 63.7 μg/ml penicillin G (Sigma, St. Louis, Mo., cat. No. PENK), 100 μg/ml streptomycin (Sigma, St. Louis, Mo., cat. no. S6501), 2% human urine and 10% heat-inactivated fetal bovine serum (Sigma, St. Louis, Mo., cat. No. F2442).
Leishmania promastigotes in the logarithmic growth phase were dispensed into black 384-well plates (Corning, New York, N.Y., cat. No. 3571) at a concentration of 15,000 parasites/μl/well using a Multidrop Combi instrument (Thermo Fisher Scientific Inc., Waltham, Mass.). […] The metabolic capacity of the parasite was measured after 2.5 hours of incubation using the CellTiter-Blue® Reagent (Promega Corporation, Madison, Wis., cat. No. G8082) using EnVision Multilabel Reader (PerkinElmer Inc., Waltham, Mass.). Data were analyzed using non-linear regression (log (inhibitor) vs. response-variable slope). […]

[4] = system: Leishmania major; conditions: primary screening, library compounds at 1 μM
Experimental: The compounds were screened for growth inhibition of the parasite Leishmania major.
The compounds were reformatted into 384-well polypropylene plates (Corning, cat. No. 3657) at a final concentration of 1 μM in DMSO and used to screen the growth inhibition of the parasite Leishmania major.

[5] = system: L. major, antimony salts resistant, in promastigote form; assay: Promastigote growth inhibition assay, strain resistant to antimony salts; format: cell-based, Leishmania major; conditions: 48 hours incubation
Experimental: Leishmania promastigotes in the logarithmic growth phase were dispensed into black 384-well plates (Corning, New York, N.Y., cat. No. 3571) at a concentration of 15,000 parasites/μl/well using a Multidrop Combi instrument (Thermo Fisher Scientific Inc., Waltham, Mass.). Immediately thereafter DPI (1 nM-500 nM) or amphotericin B (20 nM-10 μM) were added using “pitool” connected to JANUS® Automated Workstation (PerkinElmer Inc., Waltham, Mass.) and incubated for 48 hours. The metabolic capacity of the parasite was measured after 2.5 hours of incubation using the CellTiter-Blue® Reagent (Promega Corporation, Madison, Wis., cat. No. G8082) using EnVision Multilabel Reader (PerkinElmer Inc., Waltham, Mass.). Data were analyzed using non-linear regression (log (inhibitor) vs. response-variable slope). Preparation of the graphs and IC50 calculation were performed using GraphPad Prism 5 software (GraphPad Software, USA). The IC50 value was calculated by non-linear regression method as the concentration of DPI in which the number of viable promastigotes was reduced by 50% (values given below in Table 1).

[6] = system: CCD 841 (intestinal epithelial cells); conditions: DPI 9.8 nM-1.25 μM; 48 hours incubation
Experimental: as §1

[7] = system: Plasmodium falciparum; conditions: kills Plasmodium falciparum; Yuan et al. Nat Chem Biol 2009; cited from earlier work

Row | SMILES | viability of human MRC5 cells [1] | L. major, in intracellular amastigote form (LD50, μM) [2] [µM] | IC50 [3] [nM] | growth inhibition of the parasite Leishmania major [4] | growth inhibition of the parasite Leishmania major ([4]; listed as diphenyleneiodonium (DPI)) | IC50 [5] [nM] | viability of human CCD 841 cells [6] | IC50 [7] [nM]
1 | c1ccc2c(c1)[I+]c1ccccc1-2 [DPI, [1,1′-biphenyl]-2,2′-diyliodonium] | no negative effect on the viability | 0.066 | 10 | potent inhibitor of the growth of Leishmania major | effective inhibitor | 15 | no negative effect on the viability | 0.06 to 1
2 | C[C@@H]1[C@H](O)[C@@H](C)/C=C/C=C/C=C/C=C/C=C/C=C/C=C/[C@H](O[C@@H]2O[C@H](C)[C@@H](O)[C@H](N)[C@@H]2O)C[C@@H]2O[C@](O)(C[C@@H](O)C[C@@H](O)[C@H](O)CC[C@@H](O)C[C@@H](O)CC(=O)O[C@H]1C)C[C@H](O)[C@H]2C(=O)O [amphotericin B, reference compound] |  | 0.143 | 39 |  |  | 43 |  | 
